Experimental data as given in patent US20120107323A1, “KINASE PROTEIN BINDING INHIBITORS” (University of Florida, priority 2009, published 2012).

Experiments:
C8161 subcutaneous tumor = assay: C8161 melanoma xenograft in nude mice; assay type: in vivo
Description: (§1) Kinase Profiler Screening: Kinase specificity screening was performed with Invitrogen's SelectScreen® Kinase Profiling Services http://www.invitrogen.com/site/us/en/home/Products-and-Services/Services/Discoverv-Research/SelectScreen-Profiling-Service/SelectScreen-Kinase-Profiling-Service.html. The screening was performed with 1 μM compound, INT2-31, 10 μM ATP, and kinase substrates against ten recombinant kinases according to Z′-LYTET™ Kinase Assay. For PI3 kinase activity, 100 μM ATP, and kinase substrate were utilized with the Invitrogen Adapta® Universal Kinase Assay protocol. Tumor Growth in Nude Mice in vivo: Six week old athymic, female nude mice were purchased from Harlan Laboratory. The mice were maintained in the animal facility, and all experiments were performed in compliance with NIH animal-use guidelines and under an IACUC approved protocol. Melanoma cells were injected, 5×10^6 cells, subcutaneously. When the tumor size reached 100 mm^3, the INT2-31 was introduced by intraperitoneal injection at a dose of 15 mg/kg daily for 21 days. Tumor diameters were measured with calipers, and tumor volume in mm^3 was calculated using the formula [(width)^2×length]/2. At the end of experiment, tumor weight and volume were determined.
For the melanoma study, the University of Florida IACUC approved the following protocol (IACUC Study #200801077). Melanoma cells were injected, 5×10^6 cells, subcutaneously. When the tumor size reached 100 mm^3, the INT2-31 was introduced by intraperitoneal injection at a dose of 15 mg/kg daily. Tumor diameters were measured with calipers, and tumor volume in mm^3 was calculated using the formula [(width)^2×length]/2. At the end of experiment, tumor weight and volume were determined.
Immunohistochemistry: Xenograft tumor tissue was fixed in 10% formalin and embedded in paraffin. For Ki-67 staining, samples underwent deparaffinization and antigen retrieval and incubated with the primary antibody, Ki-67 (Dako M7240), at 1:200 concentration overnight at 4° C. The tissues were stained with the chromogen DAB and counterstained with hematoxylin and 1% TBS.
For assessment of apoptotic cells, staining was performed utilizing the Dead End™ Calorimetric TUNEL System (Promega, Madison, Wis.) according to instructions from the manufacturer. Percent apoptotic cells were determined from counting at least 400 cells in a high power field.

A375 melanoma cells [1] = assay: CFSE cell proliferation assay, A375; assay type: cell-based, human
Description: For staining with CFSE (Molecular Probes, Eugene, Oreg.)., 1×10^7/ml cells were suspended in PBS and incubated at 37° C. for 5 min with the 10 μM of CFSE. Stained cells were cultured with medium alone or with inhibitor for 24, 48, and 72 hours, fixed and analyzed by a FACS Calibur cytometer (Becton Dickinson, San Jose, Calif.).

[2] = Previous toxicity testing at 50 mg/kg/day; assay type: in vivo, mice; details: 50 mg/kg/day i.p.
A375 subcutaneous tumor = assay: A375 melanoma xenograft in nude mice; assay type: in vivo; details: A375, 15 mg/kg daily intraperitoneal, 21 days, p<0.05
Description: as §1, with “Melanoma cells were injected, 5×10^6 cells, subcutaneously. When the tumor size reached 100 mm^3, the INT2-31 was introduced by intraperitoneal injection at a dose of 15 mg/kg daily for 21 days.” left out
For the melanoma study, the University of Florida IACUC approved the following protocol (IACUC Study #200801077). […] Tumor diameters were measured with calipers, and tumor volume in mm^3 was calculated using the formula [(width)^2×length]/2. At the end of experiment, tumor weight and volume were determined.

[3] = test system: Panc-1 pancreatic cancer cells; assay: Cell viability (MTT), Panc-1; assay type: cell-based
Description: (§2) Cell viability (MTT) and CFSE Proliferation assay: Cells were plated in 96-well plates and let adhere overnight. After cell treatment, cell viability was measured by 3-(4,5-dimethylthiazol-2-yl)-2,5-diphenyl tetrazolium bromide (MTT) assay (CellTiter 96® Aqueous, Promega, Madison, Wis.).
(§3) Cell viability and detachment assays: After cells were treated with siRNA transfection, cell viability was measured by 3-(4,5-dimethylthiazol2-yl)-2,5-diphenyl tetrazolium bromide (MTT) assay (CellTiter 96® AQueous, Promega, Madison, Wis.). Briefly, 20 μl of the tetrazolium compound was added to each well. The cells were then incubated at 37° C. for 1 h. The plate was read at 490 nm with a plate reader to determine the viability. In detachment assays, detached and attached cells were harvested separately and counted in a hemocytometer. The percentage of detachment was calculated by dividing the number of detached cells by the total number of cells. Apoptosis assays: After treatment, attached and detached cells were collected, counted and prepared for terminal uridine deoxynucleotidyl transferase (TUNEL) assay by utilizing an APO-BRDU kit (BD Pharmingen, San Diego, Calif.) according to the manufacturer's instructions. Stained cells were analyzed with a fluorescence-activated cell sorting-Calibur flow cytometer (BD Biosciences). Calculation of the percentage of apoptotic cells in the sample was completed with CellQuest software (BD Biosciences). Apoptotic cells were also analyzed by Hoechst staining. Hoechst 33342 ([…]) was added to the fixed cells and the specimens were mounted on glass coverslips. The slides were viewed under the Zeiss microscope for apoptotic nuclei. The percent of apoptotic cells was calculated as the ratio of apoptotic cells to total number of cells.
In addition, the effect of INT2-31 on cell viability of esophageal, pancreatic and breast cancer cell lines was analyzed and the IC50 value for each cell line was determined, as shown in Table 1. […] Similar to melanoma results, INT2-31 inhibits viability more in cancer cells compared to normal cells. Sensitivity of the cells to INT2-31 varied and directly correlated to the FAK and IGF-1R expression level of the cells.

[4] = test system: esophageal patient #5 cells; assay: Cell viability (MTT), esophageal patient #5 cells; assay type: cell-based; details: Homo sapiens, average IC50
Description: as §2
To assimilate the effects of targeting the interaction of these proteins in direct patient specimens, a system was developed in which direct esophageal cancer specimens were grown in mice and tissue culture plates to allow fresh human tissue for experimentation. More than 20 tumors and corresponding normal tissue specimens have been obtained from cancer patients. […] To evaluate the in vitro effects of INT2-31 on patient specimens, we utilized MTT assay of cells grown in a tissue culture plate maximum up to eight passages were utilized.

A375 melanoma cells [5] = assay: Cell viability (MTT), A375; assay type: cell-based, human
Description: as §2, §3
In addition, the effect of INT2-31 on cell viability of esophageal, pancreatic and breast cancer cell lines was analyzed and the IC50 value for each cell line was determined, as shown in Table 1. […] Similar to melanoma results, INT2-31 inhibits viability more in cancer cells compared to normal cells. […]

[6] = test system: PARP, caspase-9, caspase 8; assay: Western blot of biochemical markers of the apoptotic pathway; assay type: cell-based

CSc1ncnc2c1ccn2C1O[C@H](COP(=O)(O)O)[C@@H](O)[C@H]1O (stereo partly drawn) [INT2-31, 4-(Methylthio)-7-(5-O-phosphono-D-ribofuranosyl)-{7H-Pyrrolo[2,3-d]pyrimidine}]
phosphorylation of AKT in tumor (C8161 subcutaneous tumor; 15 mg/kg vs PBS control, Western blot): decrease in phosphorylation of AKT | subcutaneous tumor growth compared to PBS control (C8161 subcutaneous tumor; C8161, 15 mg/kg daily intraperitoneal, 21 days, p<0.05): significant decrease | body weights between animals in each group (C8161 subcutaneous tumor; C8161 and A375 xenograft mice, 15 mg/kg): no significant difference | intensity of Ki67 staining (C8161 subcutaneous tumor; C8161 tumors, 15 mg/kg vs PBS): significantly decreased | percent of cells reactive to Ki67 (C8161 subcutaneous tumor; C8161 tumors, 15 mg/kg vs PBS): significantly decreased | percent of cells undergoing apoptosis (TUNEL) (C8161 subcutaneous tumor; C8161 tumors, 15 mg/kg vs control, p<0.05): significantly increased | densitometry, mean ratio of IGF-1R to FAK in tumor (C8161 subcutaneous tumor; C8161 tumors, immunoprecipitation of FAK, PBS 0.98+/−0.11, p=0.09): 0.78+/−0.16 | cell proliferation (CSFE) (A375 melanoma cells [1]): inhibited cell proliferation | toxicity [2]: no measurable toxicity | subcutaneous tumor growth compared to PBS control (A375 subcutaneous tumor): significant decrease | IC50 ([3]; Homo sapiens, Panc-1, 72 hours, read-out: IC50 of INT2-31, cell viability): 6700 nM | cell viability (in words) ([3]; Panc-1, 72 hours): inhibits the cell viability | effect of combination with 5-FU on cell viability ([3]; pancreatic cancer cells, 1 μM INT2-31): synergistic effects | effect of combination with gemcitabine on cell viability ([3]; pancreatic cancer cells, data not shown): only additive | IC50 [4]: 2180 nM | cell viability (in words) (A375 melanoma cells [5]; A375, MTT): inhibited cell viability in a dose-dependent manner | IC50 (A375 melanoma cells [5]; Homo sapiens, A-375, A375, 72 hours, read-out: IC50 of INT2-31, cell viability): 2700 nM | PARP and caspase-9 cleavage ([6]; 48 hours of treatment): PARP and caspase-9 cleavage | caspase 8 levels ([6]; Western blot): no significant effect
